From patent US20250154198A1, “PEPTIDE INHIBITORS OF INTERLEUKIN-23 RECEPTOR” (Zealand Pharma A/S, priority 2021, published 2025)
Where two headings read alike, the source gives them in different places. *1 amine or outer side, *2 acyl side, *3 side chain or, on linkers, in order; H or OH if unused. Where a SMILES comes first, the peptide text is derived from it. Bridges are numbered along the chain shown (N, C = ends). [ ]: non-standard residue; d: D form. 2Nal = N[C@@H](Cc1ccc2ccccc2c1)C(=O)O; αMeL = CC(C)C[C@](C)(N)C(=O)O; CH2COCH2 = O=C(C[*:1])C[*:2]; αMeK = C[C@](N)(CCCCN)C(=O)O

Legend:
human IL-23R = molecular target: T1, human IL-23R (Homo sapiens, UniProt Q5VWK5); experiment: Binding assay (NanoBRET displacement of fluorophore-labelled reference compound) for estimating binding affinity to human IL-23R; details: for Ki: Table 3-1, read-out: Ki hIL-23R
T1 construct: UniProtKB—Q5VWK5, amino acids 22-629; secretion signal of the plasmid (Promega N1371); expressed in transfected cells
T1 sequence (Q5VWK5 22-629): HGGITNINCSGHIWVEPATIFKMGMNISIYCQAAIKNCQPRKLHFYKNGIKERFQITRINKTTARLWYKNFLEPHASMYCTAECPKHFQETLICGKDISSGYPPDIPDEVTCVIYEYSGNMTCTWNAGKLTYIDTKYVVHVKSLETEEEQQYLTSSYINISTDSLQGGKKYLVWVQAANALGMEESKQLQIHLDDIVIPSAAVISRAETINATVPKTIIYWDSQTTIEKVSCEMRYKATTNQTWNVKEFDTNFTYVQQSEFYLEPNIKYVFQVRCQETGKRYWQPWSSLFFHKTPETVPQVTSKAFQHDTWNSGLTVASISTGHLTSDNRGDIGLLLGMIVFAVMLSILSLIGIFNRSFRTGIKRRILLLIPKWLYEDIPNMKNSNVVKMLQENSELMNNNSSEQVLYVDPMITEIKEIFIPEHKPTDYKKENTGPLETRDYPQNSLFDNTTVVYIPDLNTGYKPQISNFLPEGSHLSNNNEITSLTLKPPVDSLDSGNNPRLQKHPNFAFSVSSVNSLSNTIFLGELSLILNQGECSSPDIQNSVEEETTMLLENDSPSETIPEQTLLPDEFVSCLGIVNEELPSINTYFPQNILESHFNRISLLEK

[1] = molecular target: IL-23 mediated phospho-STAT3 formation in DB cells (Homo sapiens, UniProt Q5VWK5); experiment: Functional inhibition of IL-23 mediated STAT3 signalling (phospho-STAT3 Tyr705 MSD) in DB cells; assay type: cell-based; details: DB cells, read-out: IC50 (pSTAT3)
Text: Functional Inhibition of IL-23 Mediated STAT3 Signalling by Compounds
Upon binding of IL-23, the IL-23R forms a heterodimer signalling complex together with IL-12R β1, which through the JAK2/STAT3 pathway promotes phosphorylation of STAT3 to form phospho-STAT3.
The assay was used to quantify the functional antagonism of a compound and to rank order the inhibitor compounds according to their potency. For compounds tested in this assay, the response was normalized relative to control values to calculate the IC50 and maximal inhibitory response from a concentration response curve of the compound in presence of a fixed concentration of human IL-23.
The assay procedure was as follows. […] Following preincubation of the DB cells with inhibitor for 15 min in a cell incubator (37° C., 5% CO2), 20 μL of the prepared 3× the EC80 of hIL-23 solution was added to each well and incubated for 90 min in a cell incubator (37° C., 5% CO2). For some wells buffer only or IL-23 only corresponding to the EC80 was added to obtain readouts needed for normalization. To terminate the assay, the plate was spun at 1000 G for 5 min to pellet cells, the supernatant removed using an 8-channel manual pipette, and then added 50 μL/well Complete Lysis Buffer from the MSD STAT3 kit (Cat #K150SVD, Mesoscale) to the cell pellet. To completely lyse cells to release phospho-STAT3 for detection, the plate was shaken for 10 min at room temperature (500 rpm) sealed with aluminum foil and placed at −80° C. for a minimum of 15 min. Detection of the phospho-STAT3 level in the cell lysate from the individual wells was determined using the MSD STAT3 kit (Cat #K150SVD, Mesoscale) and read on a Meso QuickPlex SQ 120 plate reader (Mesoscale).
For data analysis raw data counts from the Meso QuickPlex SQ 120 plate reader were normalized relative to the response by the EC80 of hIL-23 alone (no compound added) and the buffer level. Compound potency (IC50) and maximal inhibitory response (% inhibition) were estimated by computer-aided curve fitting using a 4-parameter logistic (4PL) non-linear model.

SMILES	Ki (human IL-23R)	IC50 ([1]; Table 3-1)	also measured
CC(C)C[C@@H]1NC(=O)[C@H](Cc2c[nH]c3ccccc23)NC(=O)[C@H](Cc2c[nH]c3ccccc23)NC(=O)[C@@H]2CSCC(=O)CSC[C@H](NC(=O)[C@H](CO)NC(=O)[C@@H](NC(=O)[C@@H](N)CC(=O)O)CCC(=O)NCCCC[C@@H](C(=O)N[C@@H](CCCNC(=N)N)C(N)=O)NC1=O)C(=O)N[C@@H](Cc1c[nH]c3ccccc13)C(=O)N[C@@H](CCC(N)=O)C(=O)N2 [Compound 4, H-DE(1c)SC(2a)WQC(2a)WWLK(1c)R-[NH2]] (HELM PEPTIDE1{D.E.S.C.W.Q.C.W.W.L.K.R.[am]}|CHEM1{[O=C(C[*:1])C[*:2]]}$PEPTIDE1,PEPTIDE1,2:R3-11:R3|PEPTIDE1,CHEM1,4:R3-1:R1|PEPTIDE1,CHEM1,7:R3-1:R2$$$V2.0)			potency depending on location of the amide bond in the [2,11] lactam bridge (in words) (human IL-23R; Compound 7 (amide closer to position 11) versus Compound 4 (closer to position 2), Table 2-3b): less active; IC50 ([1]; Table 2-3b): > 1000 nM; IC50 ([1]; Table 2-4b): > 1000 nM; IC50 ([1]; Table 2-5b): > 1000 nM
CC(C)C[C@@H]1NC(=O)[C@H](Cc2c[nH]c3ccccc23)NC(=O)[C@H](Cc2c[nH]c3ccccc23)NC(=O)[C@@H]2CCCCNC(=O)CC[C@H](NC(=O)[C@H](CO)NC(=O)[C@@H](NC(=O)[C@@H](N)CC(=O)O)CSCC(=O)CSC[C@@H](C(=O)N[C@@H](CCCNC(=N)N)C(N)=O)NC1=O)C(=O)N[C@@H](Cc1c[nH]c3ccccc13)C(=O)N[C@@H](CCC(N)=O)C(=O)N2 [Compound 5, H-DC(1a)SE(2c)WQK(2c)WWLC(1a)R-[NH2]] (HELM PEPTIDE1{D.C.S.E.W.Q.K.W.W.L.C.R.[am]}|CHEM1{[O=C(C[*:1])C[*:2]]}$PEPTIDE1,CHEM1,2:R3-1:R1|PEPTIDE1,CHEM1,11:R3-1:R2|PEPTIDE1,PEPTIDE1,4:R3-7:R3$$$V2.0)	> 1000 nM	> 1000 nM	
CC(C)C[C@@H]1NC(=O)[C@H](Cc2c[nH]c3ccccc23)NC(=O)[C@H](Cc2c[nH]c3ccccc23)NC(=O)[C@@H]2CSCC(=O)CSC[C@H](NC(=O)[C@H](CO)NC(=O)[C@H](CC(=O)O)NC(=O)[C@H](CCCNC(=N)N)NC1=O)C(=O)N[C@@H](Cc1c[nH]c3ccccc13)C(=O)N[C@@H](CCC(N)=O)C(=O)N2 [Compound 6, D(1c)*SC(2a)WQC(2a)WWLR(1c)*] (HELM PEPTIDE1{C.W.Q.C.W.W.L.R.D.S}|CHEM1{[O=C(C[*:1])C[*:2]]}$PEPTIDE1,CHEM1,1:R3-1:R1|PEPTIDE1,CHEM1,4:R3-1:R2|PEPTIDE1,PEPTIDE1,1:R1-10:R2$$$V2.0)	> 1000 nM	> 1000 nM	
CC(C)C[C@@H]1NC(=O)[C@H](Cc2c[nH]c3ccccc23)NC(=O)[C@H](Cc2c[nH]c3ccccc23)NC(=O)[C@@H]2CSCC(=O)CSC[C@H](NC(=O)[C@H](CO)NC(=O)[C@@H](NC(=O)[C@@H](N)CC(=O)O)CCC(=O)NCC[C@@H](C(=O)N[C@@H](CCCNC(=N)N)C(N)=O)NC1=O)C(=O)N[C@@H](Cc1c[nH]c3ccccc13)C(=O)N[C@@H](CCC(N)=O)C(=O)N2 [Compound 9, H-DE(1c)SC(2a)WQC(2a)WWL[Dab](1c)R-[NH2]] (HELM PEPTIDE1{D.E.S.C.W.Q.C.W.W.L.[Dab].R.[am]}|CHEM1{[O=C(C[*:1])C[*:2]]}$PEPTIDE1,PEPTIDE1,2:R3-11:R3|PEPTIDE1,CHEM1,4:R3-1:R1|PEPTIDE1,CHEM1,7:R3-1:R2$$$V2.0)	> 1000 nM	> 1000 nM	
CC(=O)N[C@@H](CC(=O)O)C(=O)N[C@H]1CCC(=O)NCCCC[C@@H](C(N)=O)NC(=O)[C@H](CC(C)C)NC(=O)[C@H](Cc2c[nH]c3ccccc23)NC(=O)[C@H](Cc2c[nH]c3ccccc23)NC(=O)[C@@H]2CSCC(=O)CSC[C@H](NC(=O)[C@H](CO)NC1=O)C(=O)N[C@@H](Cc1c[nH]c3ccccc13)C(=O)N[C@@H](CCC(N)=O)C(=O)N2 [Compound 11, [Ac]-DE(1c)SC(2a)WQC(2a)WWLK(1c)-[NH2]] (HELM PEPTIDE1{[ac].D.E.S.C.W.Q.C.W.W.L.K.[am]}|CHEM1{[O=C(C[*:1])C[*:2]]}$PEPTIDE1,PEPTIDE1,3:R3-12:R3|PEPTIDE1,CHEM1,5:R3-1:R1|PEPTIDE1,CHEM1,8:R3-1:R2$$$V2.0)		> 1000 nM	
CC(=O)N[C@H]1CCC(=O)NCCCC[C@@H](C(N)=O)NC(=O)[C@H](CC(C)C)NC(=O)[C@H](Cc2c[nH]c3ccccc23)NC(=O)[C@H](Cc2c[nH]c3ccccc23)NC(=O)[C@@H]2CSCC(=O)CSC[C@H](NC(=O)[C@H](CO)NC1=O)C(=O)N[C@@H](Cc1c[nH]c3ccccc13)C(=O)N[C@@H](CCC(N)=O)C(=O)N2 [Compound 12, [Ac]-E(1c)SC(2a)WQC(2a)WWLK(1c)-[NH2]] (HELM PEPTIDE1{[ac].E.S.C.W.Q.C.W.W.L.K.[am]}|CHEM1{[O=C(C[*:1])C[*:2]]}$PEPTIDE1,PEPTIDE1,2:R3-11:R3|PEPTIDE1,CHEM1,4:R3-1:R1|PEPTIDE1,CHEM1,7:R3-1:R2$$$V2.0)		> 1000 nM	
CC(=O)N[C@H]1CCCCNC(=O)CC[C@@H](C(=O)N[C@@H](CCCNC(=N)N)C(N)=O)NC(=O)[C@H](CC(C)C)NC(=O)[C@H](Cc2ccc3ccccc3c2)NC(=O)[C@H](Cc2c[nH]c3ccccc23)NC(=O)[C@@H]2CSCC(=O)CSC[C@H](NC(=O)[C@H](CO)NC1=O)C(=O)N[C@@H](Cc1ccc3ccccc3c1)C(=O)N[C@@H](CCC(N)=O)C(=O)N2 [Compound 25, [Ac]-K(1c)SC(2a)[2-Nal]QC(2a)W[2-Nal]LE(1c)R-[NH2]] (Ac-KSC[2Nal]QCW[2Nal]LER-NH2; lactam 1-10; linker 3-6 via CH2COCH2)		> 1000 nM	
CC(=O)N[C@@H](CC(=O)O)C(=O)N[C@H]1CCC(=O)NCCCC[C@@H](C(=O)N[C@@H](CCCNC(=N)N)C(N)=O)NC(=O)[C@](C)(CC(C)C)NC(=O)[C@H](Cc2c[nH]c3ccccc23)NC(=O)[C@H](Cc2ccc(O)cc2)NC(=O)[C@@H]2CSCC(=O)CSC[C@H](NC(=O)[C@H](CCC(N)=O)NC1=O)C(=O)N[C@@H](Cc1c[nH]c3ccccc13)C(=O)N[C@@H](CCC(N)=O)C(=O)N2 [Compound 55, [Ac]-DE(1c)QC(2a)WQC(2a)YW[2-Me-Leu]K(1c)R-[NH2]] (HELM PEPTIDE1{[ac].D.E.Q.C.W.Q.C.Y.W.[CC(C)C[C@](C)(N[*:1])C(=O)[*:2]].K.R.[am]}|CHEM1{[O=C(C[*:1])C[*:2]]}$PEPTIDE1,PEPTIDE1,3:R3-12:R3|PEPTIDE1,CHEM1,5:R3-1:R1|PEPTIDE1,CHEM1,8:R3-1:R2$$$V2.0)		> 1000 nM	
CC(=O)N[C@@H](CC(=O)O)C(=O)N[C@H]1CCC(=O)NCCCC[C@@H](C(=O)N[C@@H](CCCNC(=N)N)C(N)=O)NC(=O)[C@](C)(CC(C)C)NC(=O)[C@H](Cc2c[nH]c3ccccc23)NC(=O)[C@H](Cc2ccc3ccccc3c2)NC(=O)[C@@H]2CSCC(=O)CSC[C@H](NC(=O)[C@H](CCC(N)=O)NC1=O)C(=O)N[C@@H](Cc1c[nH]c3ccccc13)C(=O)N[C@@H](CCC(N)=O)C(=O)N2 [Compound 56, [Ac]-DE(1c)QC(2a)WQC(2a)[2-Nal]W[2-Me-Leu]K(1c)R-[NH2]] (Ac-DEQCWQC[2Nal]W[αMeL]KR-NH2; lactam 2-11; linker 4-7 via CH2COCH2)		> 1000 nM	
CC(=O)N[C@@H](CC(=O)O)C(=O)N[C@H]1CCC(=O)NCCCC[C@@H](C(=O)N[C@@H](CCC(=O)O)C(=O)N[C@@H](CC(N)=O)C(=O)NCC(N)=O)NC(=O)[C@](C)(CCCCN)NC(=O)[C@H](Cc2ccc3ccccc3c2)NC(=O)[C@H](Cc2c[nH]c3ccccc23)NC(=O)[C@@H]2CSCC(=O)CSC[C@H](NC(=O)[C@H](CO)NC1=O)C(=O)N[C@@H](Cc1c[nH]c3ccccc13)C(=O)N[C@@H](CCC(N)=O)C(=O)N2 [Compound 61, [Ac]-DE(1c)SC(2a)WQC(2a)W[2-Nal][2-Me-Lys]K(1c)ENG-[NH2]] (Ac-DESCWQCW[2Nal][αMeK]KENG-NH2; lactam 2-11; linker 4-7 via CH2COCH2)		> 1000 nM	
